Test: Storage stability of amorphous empagliflozin at 5±3°C (HPLC chemical purity, PXRD)
Assay type: physicochemical
Conditions: for Chemical Purity (HPLC) / PXRD: Temp = 5 ± 3° C.
Description: • (a) (1S)-1,5-anhydro-1-C-[4-chloro-3-[[4-[[(3S)-tetrahydro-3-furanyl]oxy]phenyl]methyl]phenyl]-D-glucitol, i.e., empagliflozin (amorphous) • Apparatus: A liquid chromatographic system is to be equipped with variable • wavelength UV-Detector and Integrator. • Column: Promosil C18, 250×4.6 mm, 100 A°, 5 μm or equivalent • Column Temperature: 40° C. • Wavelength: 225 nm • Flow rate: 1.2 mL/min • Injection volume: 5 μL • Run Time: 60 min • Elution: Gradient • Diluent: Acetonitrile: Water (50:50 v/v) • Mobile phase A: Buffer solution • Mobile phase B: Acetonitrile: Water (95:5 v/v) • Buffer solution: Transfer accurately about 1 mL of ortho phosphoric acid into 1000 mL of milli-Q water, filter through 0.45 μm nylon membrane and sonicate to degas. • (b) Amorphous solid dispersion of empagliflozin and ethyl cellulose (EC) • Chromatographic conditions are same as given under (a). • (c) Amorphous solid dispersion of empagliflozin and hydroxypropyl cellulose (HPC) • Chromatographic conditions are same as given under (a), except for: • Wavelength: 220 nm • Column temperature: 35° C. • Mobile Phase B: Acetonitrile: Water (90:10 v/v) • (d) (1S)-1,5-anhydro-1-C-[4-chloro-3-[(4-ethoxyphenyl)methyl] phenyl]-D-glucitol i.e., dapagliflozin • Chromatographic conditions are same as given under (a), except for: • Column temperature: 35° C. • Run Time: 55 min • Mobile Phase B: Acetonitrile: Water (90:10 v/v)
The diffraction patterns were measured using Bruker D2 PHASER diffractometer equipped with LYNXEYE™ detector, used radiation Cu Kα (λ=1.54060 Å), excitation voltage: 30 kV, anode current: 10 mA, measured range: 3-40° 2θ, increment: 0.01° 2θ.

Structure (SMILES): OC[C@H]1O[C@@H](c2ccc(Cl)c(Cc3ccc(O[C@H]4CCOC4)cc3)c2)[C@H](O)[C@@H](O)[C@@H]1O [Empagliflozin, (1S)-1,5-anhydro-1-C-[4-chloro-3-[[4-[[(3S)-tetrahydro-3-furanyl]oxy]phenyl]methyl]phenyl]-D-glucitol]
- Chemical Purity (HPLC) (Stability period 1 month): 99.90
- PXRD (Stability period 1 month): Amorphous
- Chemical Purity (HPLC) (Stability period 3 months): 99.88
- PXRD (Stability period 3 months): Amorphous
- Chemical Purity (HPLC) (Stability period 6 months): 99.89
- PXRD (Stability period 6 months): Amorphous
- Chemical Purity (HPLC) (Stability period 12 months): 99.88
- PXRD (Stability period 12 months): Amorphous
- Chemical Purity (HPLC) (Stability period Initial): 99.88
- PXRD (Stability period Initial): Amorphous
- stable on storage (period) (storage at 5±3° C.): 12 months

Source: patent US20180346502A1, “Processes for the Preparation of SGLT-2 Inhibitors, Intermediates Thereof” (Emmennar Pharma Private Limited, priority 2017, published 2018)
